Measured values as given in PubChem BioAssay AID1845202 (Molecular Pharmacology Branch, DTP, NCI, 2023).
pIC50: −log10 of the molar value.

Test system: DMS 114 tumor spheroids, viability % test/control
Assay: Anticancer human tumor DMS 114 cell line growth inhibition;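 note: spheroids exposed to compounds for 7 days before read-out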;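 for viability, T/C: luminescence used as a proxy for viable cells; 100% = DMSO vehicle control viability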
Conditions: spheroids with HUVEC and MSC; for pIC50: curve of first compound; for viability, T/C: stronger effect = lower value
Source text: Multicellular complex tumor spheroid response to DNA repair inhibitors in combination with DNA-damaging drugs
This study explores the anticancer activities of DNA-damaging drugs and inhibitors of DNA damage repair, both as single agents and in combinations. Complex tumor spheroids comprised of malignant cells, endothelial cells and mesenchymal stem cells served as an in vitro model for human solid tumors. This model system incorporates physiologically relevant features and patient-derived or established malignant cell lines with clinically relevant genetic alterations from many tumor types. Twenty-six patient-derived or established malignant cell lines were evaluated representing sarcoma, melanoma, small cell lung cancer (SCLC), non-small cell lung cancer (NSCLC), as well as bladder, ovarian and pancreatic cancers. The concentration ranges selected for each drug and investigational agent were based upon clinically achievable concentrations if the clinical Cmax of the agent was known.
Compounds. The drugs and compounds olaparib (NSC753686), talazoparib (NSC767125), berzosertib (NSC777718), elimusertib (NSC800525), nedisertib (NSC802822), VX-984 (NSC792969), AZD-1390 (NSC803789), temozolomide (NSC362856), topotecan (NSC609699), trabectedin (NSC813783), staurosporine (NSC755774), and gemcitabine (NSC613327) were obtained from the National Cancer Institute (NCI) Developmental Therapeutics Program Chemical Repository. The FDA-approved anticancer drug set is available from the Developmental Therapeutics Program at https://dtp.cancer.gov/organization/dscb/obtaining/available_plates.htm. […] The stock solutions were prepared in dimethyl sulfoxide (DMSO, Sigma-Aldrich, St. Louis, MO, cat. D2650) at 400-fold the tested concentration and stored at -70 degrees C. Prior to their use, the stock solutions were diluted in fresh medium and the final DMSO concentration in the assay was 0.25% (v/v). All drugs and investigational agents were tested over a range starting from a high concentration at or near the clinical Cmax and decreasing in half-log increments. If the clinical Cmax for an agent had not been determined, the highest concentration tested was 10 microM.
Cell Lines. The patient-derived cancer cell (PDC) lines: 156681-154-R-J1-PDC, 283228-195-R-J1-PDC, 287954-098-R-J1-PDC, 292921-168-R-J2-PDC, 349418-098-R-PDC, 425362-245-T-J1-PDC, 556581-035-R-J1-PDC, and BL0293-F563-PDC were received from the NCI Patient-Derived Models Repository (PDMR, https://pdmr.cancer.gov). The established cell lines HS-SY-2 (RRID:CVCL_8719), MPNST, and SYO-1 (RRID:CVCL_7146) were obtained from the Sloan Kettering Institute. The alveolar soft parts sarcoma cell line ASPS-1 (RRID:CVCL_S738) was established at the NCI and grown from internal seed stocks. The following established cell lines were purchased from the American Type Culture Collection (ATCC, Manassas, VA): G-401 (ATCC, cat. CRL-1441, RRID:CVCL_0270), SW982 (ATCC, cat. HTB-93, RRID:CVCL_1734), VA-ES-BJ (ATCC, cat. CRL-2138, RRID:CVCL_1785), NCI-H719 (ATCC, cat. CRL-5837, RRID:CVCL_1582), NCI-H196 (ATCC, cat. CRL-5823, RRID:CVCL_1509), NCI-H841 (ATCC, cat. CRL-5845, RRID:CVCL_1595), NCI-H1618 (ATCC, cat. CRL-5879, RRID:CVCL_1480), NCI-H1876 (ATCC, cat. CRL-5902, RRID:CVCL_1503), DMS 114 (ATCC, cat. CRL-2066; RRID:CVCL_1174), NCI-H211 (ATCC, cat. CRL-5824; RRID:CVCL_1529), and SW 1271 (ATCC, cat. CRL-2177, RRID:CVCL_1716). The small cell lung cancer cell line COR-L88 was purchased from Sigma-Aldrich (cat. 92031917-1VL, RRID:CVCL_1141). The non-small cell lung cancer cell lines NCI-H226 (RRID:CVCL_1544) and NCI-H322M (RRID:CVCL_1557) were established at the NCI and grown from internal seed stocks. Pooled donor human umbilical vein endothelial cells (HUVEC, Lonza, cat. CC-2519) and human mesenchymal stem cells (hMSC, Lonza, cat. PT-2501) were purchased from Lonza (Walkersville, MD).
Cell Culture. All cells were maintained in an incubator at 37 degrees C and 5% CO2 with 95% humidity. […]

[1] = second compound 0.003 µM, first compound 0.0949 µM
[2] = second compound 0.003 µM, first compound 0.3 µM
[3] = second compound 0.003 µM, first compound 0.949 µM
[4] = second compound 0.003 µM, first compound 3 µM
[5] = second compound 0.00949 µM, first compound 0.0949 µM
[6] = second compound 0.00949 µM, first compound 0.3 µM
[7] = second compound 0.00949 µM, first compound 0.949 µM
[8] = second compound 0.00949 µM, first compound 3 µM
[9] = second compound 0.03 µM, first compound 0.0949 µM
[10] = second compound 0.03 µM, first compound 0.3 µM
[11] = second compound 0.03 µM, first compound 0.949 µM
[12] = second compound 0.03 µM, first compound 3 µM
[13] = second compound 0.0949 µM, first compound 0.0949 µM
[14] = second compound 0.0949 µM, first compound 0.3 µM
[15] = second compound 0.0949 µM, first compound 0.949 µM
[16] = second compound 0.0949 µM, first compound 3 µM
[17] = second compound 0.3 µM, first compound 0.0949 µM
[18] = second compound 0.3 µM, first compound 0.3 µM
[19] = second compound 0.3 µM, first compound 0.949 µM
[20] = second compound 0.3 µM, first compound 3 µM

| SMILES | pIC50 (second compound 0.003 µM) | pIC50 (second compound 0.00949 µM) | pIC50 (second compound 0.03 µM) | pIC50 (second compound 0.0949 µM) | pIC50 (second compound 0.3 µM) | viability, T/C [1] [%] | viability, T/C [2] [%] | viability, T/C [3] [%] | viability, T/C [4] [%] | viability, T/C [5] [%] | viability, T/C [6] [%] | viability, T/C [7] [%] | viability, T/C [8] [%] | viability, T/C [9] [%] | viability, T/C [10] [%] | viability, T/C [11] [%] | viability, T/C [12] [%] | viability, T/C [13] [%] | viability, T/C [14] [%] | viability, T/C [15] [%] | further results |
| --- | --- | --- | --- | --- | --- | --- | --- | --- | --- | --- | --- | --- | --- | --- | --- | --- | --- | --- | --- | --- | --- |
| Cn1ncnc1[C@H]1c2n[nH]c(=O)c3cc(F)cc(c23)N[C@@H]1c1ccc(F)cc1 + CC[C@@]1(O)C(=O)OCc2c1cc1n(c2=O)Cc2cc3c(CN(C)C)c(O)ccc3nc2-1 | 6.75 | > 8.02 | > 8.02 | > 8.02 | > 8.02 | 62 | 38.9 | 25.2 | 8.5 | 32.6 | 25.3 | 16.4 | 9.08 | 16.2 | 14 | 10 | 4.96 | 10.9 | 10.4 | 6.74 | viability, T/C (second compound 0.003 µM, first compound 0.00949 µM): 80.7%; viability, T/C (second compound 0.003 µM, first compound 0.03 µM): 72.9%; viability, T/C (second compound 0.00949 µM, first compound 0.00949 µM): 50.9%; viability, T/C (second compound 0.00949 µM, first compound 0.03 µM): 37.5%; viability, T/C (second compound 0.03 µM, first compound 0.00949 µM): 18.6%; viability, T/C (second compound 0.03 µM, first compound 0.03 µM): 18.6%; viability, T/C (second compound 0.0949 µM, first compound 0.00949 µM): 12.8%; viability, T/C (second compound 0.0949 µM, first compound 0.03 µM): 10.6%; viability, T/C [16]: 3.77%; viability, T/C (second compound 0.3 µM, first compound 0.00949 µM): 7.76%; viability, T/C (second compound 0.3 µM, first compound 0.03 µM): 7.9%; viability, T/C [17]: 7.53%; viability, T/C [18]: 5.94%; viability, T/C [19]: 5.76%; viability, T/C [20]: 2.99% |
| O=C(c1cc(Cc2n[nH]c(=O)c3ccccc23)ccc1F)N1CCN(C(=O)C2CC2)CC1 + CC[C@@]1(O)C(=O)OCc2c1cc1n(c2=O)Cc2cc3c(CN(C)C)c(O)ccc3nc2-1 | 5.30 | 5.74 | > 7.02 | > 7.02 | > 7.02 | 104 | 98.3 | 96.9 | 68.6 | 69.3 | 64.6 | 64.9 | 39.1 | 24 | 21.4 | 22.6 | 17.8 | 12.9 | 13.9 | 13.4 | viability, T/C (second compound 0.003 µM, first compound 9.49 µM): 27.3%; viability, T/C (second compound 0.003 µM, first compound 30 µM): 19.7%; viability, T/C (second compound 0.00949 µM, first compound 9.49 µM): 23.8%; viability, T/C (second compound 0.00949 µM, first compound 30 µM): 18%; viability, T/C (second compound 0.03 µM, first compound 9.49 µM): 13.2%; viability, T/C (second compound 0.03 µM, first compound 30 µM): 12.6%; viability, T/C [16]: 11.2%; viability, T/C (second compound 0.0949 µM, first compound 9.49 µM): 9.09%; viability, T/C (second compound 0.0949 µM, first compound 30 µM): 9.45%; viability, T/C [17]: 8.39%; viability, T/C [18]: 8.45%; viability, T/C [19]: 9.03%; viability, T/C [20]: 6.88%; viability, T/C (second compound 0.3 µM, first compound 9.49 µM): 5.76%; viability, T/C (second compound 0.3 µM, first compound 30 µM): 6.93% |
